Consider 1 compound from patent US7781423B2, “Compounds to promote regeneration of bone marrow” (priority 2007, dated 2010).

Read-outs that look alike come from different tables or passages of the source.

Data set [1] deals with human bone marrow-derived mesenchymal stem cells. Put plainly: Survival of mesenchymal stem cells in the absence of serum (viable cell number). Type of data set: cell-based. The following applies: serum-free medium. The procedure: (§1) Bone marrow aspirates were taken from normal adult donors after an informed consent was signed. Bone marrow mesenchymal stem cells were prepared by a widely used technique as described earlier by others. Pittenger, M. F., Mackay, A. M., Beck, S. C., Jaiswal, R. K., Douglas, R., Mosca, J. D., Moorman, M. A., Simonetti, D. W., Craig, S. and Marshak, D. R., “Multilineage potential of adult human mesenchymal stem cells,” Science, 284, 143-147 (1999). […] When cells grew to about 80% confluence, they were suspended and harvested by incubating with a ready-made solution containing 0.25% trypsin and 1 mM EDTA (Sigma-Aldrich, St. Louis, Mo.) for 5 minutes at 37° C.; this cell suspension is designated as passage 1. […]
(§2) The total numbers of nucleated and viable cells were determined with a hemocytometer, using Turck's solution and trypan blue stain, respectively. […]
(§3) In the experiments reported in Table 7 and Table 8, human bone marrow-derived mesenchymal stem cells were split at 1:3 and then incubated for 24 hours in 10% fetal calf serum-containing medium to about 30-35% confluence. […] The data are expressed as mean values±std. dev. of 3 determinations.

Data set [2] shares this test system. As to the kind of experiment: Proliferation of mesenchymal stem cells in the presence of 2% serum (viable cell number). Type of data set: cell-based. The settings on record: 10 μM or 50 μM. The method, then:
as §1, §2, §3

The nature of a further data set: MTT cell viability assay. Type of data set: cell-based. The following applies: human, read-out: decrease of viability. The procedure: The NIH 3T3 (normal) mouse fibroblast, A431 human epidermoid adenocarcinoma, and MCF-7 human breast cancer cells were cultured in DMEM medium containing 10% FBS. The MEL-28 human melanoma cells were cultured in MEM medium containing 10% FBS. The HT-29 human colon adenocarcinoma cells were cultured in McCoy's 5a medium containing 10% FBS. The A549 human lung carcinoma cells were maintained in Ham's F12K medium containing 10% FBS. T47D cells were cultured in 12-well plates in RPMI 1640 medium supplemented with 0.2 IU bovine insulin and 10% FBS. CaOV-3 human ovarian cancer cells were cultured in DMEM containing 10% FBS. ZR-75-1 human estrogen receptor-positive breast cancer cells were maintained in RPMI 1640 medium supplemented with 10% FBS. HTB-157 human fetal fibroblasts, MEL-24 human malignant melanoma cells, Hep G2 human hepatoblastoma cells, and CaCO-2 human colon adenocarcinoma cells were maintained in Eagles's MEM containing 10% FBS. MB-231 human estrogen receptor-negative breast cancer cells were maintained in Leibovitz's L-15 medium supplemented with 10% FBS.
In the actual experiments, cells were seeded into 96-well plates and cultivated up to either ˜70-90% confluency (survival experiments) or 20-25% confluency (proliferation experiments). Then the medium was changed for serum-free medium (survival experiment) or 2% serum-containing medium (proliferation experiment). The incubation continued for 72 hours followed by the MTT assay to determine cell viability. This calorimetric assay is based on the ability of living cells, but not dead cells, to reduce 3-(4,5-dimethyl thiazol-2-yl)-2,5-diphenyltetrazolium bromide. Carmichael, J, De Graff, W. G., Gazdar, A. F., Minna, J. D. and Mitchell, J. B., “Evaluation of tetrazolium-based semiautomated calorimetric assay: Assessment of chemosensitivity testing,” Cancer Res., 47, 936-942 (1987).

Another data set concerns healthy mice. Put plainly: Toxicity in healthy mice. The following applies: 1,000-1,500 μmole doses. Type of data set: in vivo.

Regarding `Cc1c(OCC(O)C[N+](C)(C)C)cc2c(=O)c3ccccc3sc2c1C.[Cl-]` (centres unmarked) [CCcompound1, [3-(3,4-Dimethyl-9-oxo-9H-thioxanthen-2-yloxy)-2-hydroxypropyl]trimethyl-ammonium chloride], the “effect on cell numbers (survival)” value in data set [1] (10 μM) is given as “did not reach statistical significance”; in data set [1] (50 μM), “no effect”. In addition, the “effect on the proliferation of stem cells” value in data set [2] is on record as “no direct stimulatory effect”. For the same compound, the cytotoxicity at 72 h, 50 μM in “MTT cell viability assay” (CaOV-3 ovarian cancer cells), in “MTT cell viability assay” (Hep G2 hepatoblastoma cells), in “MTT cell viability assay” (MEL-28 melanoma cells) and in “MTT cell viability assay” (ZR-75-1 estrogen receptor-positive breast cancer cells) was 20 to 40% in each case. The “tissue alterations at high doses” value in the data set on healthy mice was “mild parenchymal degeneration in the heart, focal hypostasis and chronic bronchopneumonia”.
